Among the data in US20260250290A1 (BRISTOL-MYERS SQUIBB COMPANY, priority 2023, published 2026) are IC50 values, retold here.

The target in this test is T1, full length SGK1 (Homo sapiens, UniProt O00141).
T1 construct: 125 μM full length SGK1 (Life Technologies Part #PR7358A); purchased Life Technologies PR7358A
T1 sequence (O00141 1-431): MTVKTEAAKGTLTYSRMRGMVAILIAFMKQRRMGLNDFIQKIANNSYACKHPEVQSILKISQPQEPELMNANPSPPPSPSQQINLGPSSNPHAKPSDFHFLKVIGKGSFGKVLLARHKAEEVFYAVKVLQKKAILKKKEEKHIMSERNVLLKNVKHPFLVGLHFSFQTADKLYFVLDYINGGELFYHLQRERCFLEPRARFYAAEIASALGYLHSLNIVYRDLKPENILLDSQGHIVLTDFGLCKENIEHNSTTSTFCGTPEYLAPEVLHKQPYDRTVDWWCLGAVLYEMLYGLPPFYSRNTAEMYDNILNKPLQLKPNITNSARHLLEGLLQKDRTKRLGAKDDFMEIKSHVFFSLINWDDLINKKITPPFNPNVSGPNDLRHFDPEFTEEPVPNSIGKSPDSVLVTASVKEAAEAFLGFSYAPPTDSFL
The experiment in a line: SGK1 inhibition Assay A (Caliper LabChip electrophoretic separation of fluorescent peptide substrate and phosphorylated product). It counts as biochemical. Conditions: Assay A; 20 μM ATP, 40 min incubation; read-out: SGK1 IC50.

SMILES strings stand for the structures. Structures can show the parent of a compound that is named as a salt.

A word on the IC50: it is the concentration that gives 50% inhibition. As for `Nc1ncnn2c(-c3ccc4nncn4c3)cc(N3CCC[C@@H](NC(=O)c4ccc(Cl)s4)C3)c12` [Example 252], the IC50 stood at 4 nM.

`Nc1ncnn2c(-c3ccn4nnnc4c3)cc(N3CCC[C@@H](NC(=O)c4ccc(Cl)s4)C3)c12` [Example 253, (R)-N-(1-(4-amino-7-(tetrazolo[1,5-a]pyridin-7-yl)pyrrolo[2,1-f][1,2,4]triazin-5-yl)piperidin-3-yl)-5-chlorothiophene-2-carboxamide]: the IC50 is 2 nM.

Take `Cc1nnc2ccc(-c3cc(N4CCC[C@@H](NC(=O)c5ccc(Cl)s5)C4)c4c(N)ncnn34)cn12` [Example 254]: the 50% inhibitory concentration (IC50) was 23 nM.

Regarding `CC(=O)N1CC=C(c2cc(N3CCC[C@@H](NC(=O)c4ccc(C)s4)C3)c3c(N)ncnn23)C1` [Example 255, (R)—N-(1-(7-(1-acetyl-2,5-dihydro-1H-pyrrol-3-yl)-4-aminopyrrolo[2,1-f][1,2,4]triazin-5-yl)piperidin-3-yl)-5-methylthiophene-2-carboxamide], the concentration for half-maximal inhibition (IC50) was determined as 10 nM.

With `COc1cc(C(=O)N[C@@H]2CCCN(c3cc(C4=CCN(C(C)=O)C4)n4ncnc(N)c34)C2)sn1` [Example 256, (R)—N-(1-(7-(1-acetyl-2,5-dihydro-1H-pyrrol-3-yl)-4-aminopyrrolo[2,1-f][1,2,4]triazin-5-yl)piperidin-3-yl)-3-methoxyisothiazole-5-carboxamide], the IC50 worked out at 0.5 nM.

Turning to `CC(=O)N1CC=C(c2cc(N3CCC[C@@H](NC(=O)c4cccc(-n5cnnc5)c4)C3)c3c(N)ncnn23)C1` [Example 257, (R)—N-(1-(7-(1-acetyl-2,5-dihydro-1H-pyrrol-3-yl)-4-aminopyrrolo[2,1-f][1,2,4]triazin-5-yl)piperidin-3-yl)-3-(4H-1,2,4-triazol-4-yl)benzamide, TFA], the IC50 worked out at 65 nM.

For `COc1cnccc1C(=O)N[C@@H]1CCCN(c2cc(C3=CCN(C(C)=O)C3)n3ncnc(N)c23)C1` [Example 258, (R)—N-(1-(7-(1-acetyl-2,5-dihydro-1H-pyrrol-3-yl)-4-aminopyrrolo[2,1-f][1,2,4]triazin-5-yl)piperidin-3-yl)-3-methoxyisonicotinamide], the IC50 came to 67 nM.

With `COCC(=O)N1CC=C(c2cc(N3CCC[C@@H](NC(=O)c4sc(Cl)cc4OCCN4CCOCC4)C3)c3c(N)ncnn23)C1` [Example 259, (R)—N-(1-(4-amino-7-(1-(2-methoxyacetyl)-2,5-dihydro-1H-pyrrol-3-yl)pyrrolo[2,1-f][1,2,4]triazin-5-yl)piperidin-3-yl)-5-chloro-3-(2-morpholinoethoxy)thiophene-2-carboxamide], the IC50 turned out to be 28 nM.

Consider `COC(C(=O)N1CC=C(c2cc(N3CCC[C@@H](NC(=O)c4sc(Cl)cc4OCCN4CCOCC4)C3)c3c(N)ncnn23)C1)C1CC1` (stereo partly drawn) [Example 260, N-((3R)-1-(4-amino-7-(1-(2-cyclopropyl-2-methoxyacetyl)-2,5-dihydro-1H-pyrrol-3-yl)pyrrolo[2,1-f] [1,2,4]triazin-5-yl)piperidin-3-yl)-5-chloro-3-(2-morpholinoethoxy)thiophene-2-carboxamide], for which the IC50 was 48 nM.

As to `CC1(C)CC1C(=O)N1CC=C(c2cc(N3CCC[C@@H](NC(=O)c4sc(Cl)cc4OCCN4CCOCC4)C3)c3c(N)ncnn23)C1` (stereo partly drawn) [Example 261, N-((3R)-1-(4-amino-7-(1-(2,2-dimethylcyclopropane-1-carbonyl)-2,5-dihydro-1H-pyrrol-3-yl)pyrrolo[2,1-f] [1,2,4]triazin-5-yl)piperidin-3-yl)-5-chloro-3-(2-morpholinocthoxy)thiophene-2-carboxamide], the IC50 was determined as 32 nM.

Consider `Nc1ncnn2c(C3=CCN(C(=O)C4(F)CC4)C3)cc(N3CCC[C@@H](NC(=O)c4sc(Cl)cc4OCCN4CCOCC4)C3)c12` [Example 263, (R)-N-(1-(4-amino-7-(1-(1-fluorocyclopropane-1-carbonyl)-2,5-dihydro-1H-pyrrol-3-yl)pyrrolo [2,1-f][1,2,4]triazin-5-yl)piperidin-3-yl)-5-chloro-3-(2-morpholinoethoxy)thiopbene-2-carboxamide], for which the IC50 was found to be 12 nM.

With `N#CC1(C(=O)N2CC=C(c3cc(N4CCC[C@@H](NC(=O)c5sc(Cl)cc5OCCN5CCOCC5)C4)c4c(N)ncnn34)C2)CC1` [Example 264, (R)-N-(1-(4-amino-7-(1-(1-cyanocyclopropane-1-carbonyl)-2,5-dihydro-1H-pyrrol-3-yl)pyrrolo[2,1-f][1,2,4]triazin-5-yl)piperidin-3-yl)-5-chloro-3-(2-morpholinoethoxy)thiophene-2-carboxamide], the IC50 came out at 12 nM.

On to `Nc1ncnn2c(C3=CCN(C(=O)C4CC45CC5)C3)cc(N3CCC[C@@H](NC(=O)c4sc(Cl)cc4OCCN4CCOCC4)C3)c12` (stereo partly drawn) [Example 265, N-((3R)-1-(4-amino-7-(1-(spiro[2.2]pentane-1-carbonyl)-2,5-dihydro-1H-pyrrol-3-yl)pyrrolo[2,1-f][1,2,4]triazin-5-yl)piperidin-3-yl)-5-chloro-3-(2-morpholinoethoxy)thiophene-2-carboxamide], for which the IC50 is 18 nM.

Turning to `CC1CC1C(=O)N1CC=C(c2cc(N3CCC[C@@H](NC(=O)c4sc(Cl)cc4OCCN4CCOCC4)C3)c3c(N)ncnn23)C1` (stereo partly drawn) [Example 266, N-((3R)-1-(4-amino-7-(1-(2-methylcyclopropane-1-carbonyl)-2,5-dihydro-1H-pyrrol-3-yl)pyrrolo[2,1-f][1,2,4]triazin-5-yl)piperidin-3-yl)-5-chloro-3-(2-morpholinoethoxy)thiopbene-2-carboxamide], the IC50 is 18 nM.

With `Nc1ncnn2c(-c3ccnc(C(F)(F)F)c3)cc(N3CCC[C@@H](NC(=O)c4sc(Cl)cc4OCCN4CCOCC4)C3)c12` [Example 267, (R)—N-(1-(4-amino-7-(2-(trifluoromethyl)pyridin-4-yl)pyrrolo[2,1-f][1,2,4]triazin-5-yl)piperidin-3-yl)-5-chloro-3-(2-morpholinoethoxy)thiophene-2-carboxamide], the IC50 amounted to 9 nM.

As for `CC(=O)N1CC=C(c2cc(N3CCC[C@@H](NC(=O)c4sc(C)cc4N4CCOCC4)C3)c3c(N)ncnn23)C1` [Example 268, (R)—N-(1-(7-(1-acetyl-2,5-dihydro-1H-pyrrol-3-yl)-4-aminopyrrolo[2,1-f][1,2,4]triazin-5-yl)piperidin-3-yl)-5-methyl-3-morpholinothiophene-2-carboxamide], the IC50 is 38 nM.

With `CC(=O)N1CC=C(c2cc(N3CCC[C@@H](NC(=O)c4sc(C)cc4N4CCN(C)CC4)C3)c3c(N)ncnn23)C1` [Example 269, (R)—N-(1-(7-(1-acetyl-2,5-dihydro-1H-pyrrol-3-yl)-4-aminopyrrolo[2,1-f][1,2,4]triazin-5-yl)piperidin-3-yl)-5-methyl-3-(4-methylpiperazin-1-yl)thiophene-2-carboxamide], the IC50 came to 31 nM.

In the case of `CC(=O)N1CC=C(c2cc(N3CCC[C@@H](NC(=O)c4cc(N5CCN(C)CC5)c(C)s4)C3)c3c(N)ncnn23)C1` [Example 270, (R)—N-(1-(7-(1-acetyl-2,5-dihydro-1H-pyrrol-3-yl)-4-aminopyrrolo[2,1-f][1,2,4]triazin-5-yl)piperidin-3-yl)-5-methyl-4-(4-methylpiperazin-1-yl)thiophene-2-carboxamide], the IC50 is 49 nM.

Take `CC(=O)N1CC=C(c2cc(N3CCC[C@@H](NC(=O)c4cc(N5CCOCC5)c(C)s4)C3)c3c(N)ncnn23)C1` [Example 271, (R)—N-(1-(7-(1-acetyl-2,5-dihydro-1H-pyrrol-3-yl)-4-aminopyrrolo[2,1-f][1,2,4]triazin-5-yl)piperidin-3-yl)-5-methyl-4-morpholinothiophene-2-carboxamide]: the IC50 was found to be 22 nM.

With `CC(=O)N1CC=C(c2cc(N3CCC[C@@H](NC(=O)c4cc(N5CCOCC5)cs4)C3)c3c(N)ncnn23)C1` [Example 272, (R)—N-(1-(7-(1-acetyl-2,5-dihydro-1H-pyrrol-3-yl)-4-aminopyrrolo[2,1-f][1,2,4]triazin-5-yl)piperidin-3-yl)-4-morpholinothiophene-2-carboxamide], the half-inhibitory concentration (IC50) is 28 nM.

Take `CN1CCN(CCOc2cc(Cl)sc2C(=O)N[C@@H]2CCCN(c3cc(C4=CCN(S(C)(=O)=O)C4)n4ncnc(N)c34)C2)CC1` [Example 273, (R)—N-(1-(4-amino-7-(1-(methylsulfonyl)-2,5-dihydro-1H-pyrrol-3-yl)pyrrolo[2,1-f][1,2,4]triazin-5-yl)piperidin-3-yl)-5-chloro-3-(2-(4-methylpiperazin-1-yl)ethoxy)thiophene-2-carboxamide]: the IC50 came out at 5 nM.

In the case of `CS(=O)(=O)c1ccc(-c2cc(N3CCC[C@@H](NS(=O)(=O)c4ccccc4)C3)c3c(N)ncnn23)cc1` [Example 274, (R)—N-(1-(4-amino-7-(4-(methylsulfonyl)phenyl)pyrrolo[2,1-f][1,2,4]triazin-5-yl)piperidin-3-yl)benzenesulfonamide], the IC50 came to 916 nM.

Regarding `CN(C)CCOc1cc(Cl)sc1C(=O)N[C@@H]1CCCN(c2cc(-c3cnn(C4CCOC4)c3)n3ncnc(N)c23)C1` (stereo partly drawn) [Example 275, N-((3R)-1-(4-amino-7-(1-(tetrahydrofuran-3-yl)-1H-pyrazol-4-yl)pyrrolo[2,1-f][1,2,4]triazin-5-yl)piperidin-3-yl)-5-chloro-3-(2-(dimethylamino)ethoxy)thiophene-2-carboxamide], the IC50 is 919 nM.

For the compound `CN(C)CCOc1cc(Cl)sc1C(=O)N[C@@H]1CCCN(c2cc(-c3ccc(C=O)cc3)n3ncnc(N)c23)C1` [Example 276, (R)—N-(1-(4-amino-7-(4-formylphenyl)pyrrolo[2,1-f][1,2,4]triazin-5-yl)piperidin-3-yl)-5-chloro-3-(2-(dimethylamino)ethoxy)thiophene-2-carboxamide], the IC50 was found to be 1 nM.
